Source: ChEMBL document CHEMBL2331514, “Structure-based design and synthesis of novel pseudosaccharine derivatives as antiproliferative agents and kinase inhibitors” (Eur J Med Chem, 2013)

Legend:
Format in all cases: functional
A498 = experiment: Cytotoxicity against human A498 cells assessed as growth inhibition at 10 uM after 48 hrs by SRB assay; settings: A498, 48 h, read-out: GI
SN12C = experiment: Cytotoxicity against human SN12C cells assessed as growth inhibition at 10 uM after 48 hrs by SRB assay; settings: read-out: GI
SK-MEL-28 = experiment: Cytotoxicity against human SK-MEL-28 cells assessed as growth inhibition at 10 uM after 48 hrs by SRB assay; settings: SK-MEL-28, 48 h, read-out: GI
SK-MEL-2 = experiment: Cytotoxicity against human SK-MEL-2 cells assessed as growth inhibition at 10 uM after 48 hrs by SRB assay; settings: SK-MEL-2, 48 h, read-out: GI
NCI-H522 = experiment: Cytotoxicity against human NCI-H522 cells assessed as growth inhibition at 10 uM after 48 hrs by SRB assay; settings: NCI-H522, 48 h, read-out: GI
RPMI-8226 = experiment: Cytotoxicity against human RPMI8226 cells assessed as growth inhibition at 10 uM after 48 hrs by SRB assay; settings: RPMI-8226, 48 h, read-out: GI
MDA-MB-231 = experiment: Cytotoxicity against human MDA-MB-231 cells assessed as growth inhibition at 10 uM after 48 hrs by SRB assay; settings: MDA-MB-231, 48 h, read-out: GI
SF-268 = experiment: Cytotoxicity against human SF268 cells assessed as growth inhibition at 10 uM after 48 hrs by SRB assay; settings: SF-268, 48 h, read-out: GI
HCT-116 = experiment: Cytotoxicity against human HCT116 cells assessed as growth inhibition at 10 uM after 48 hrs by SRB assay; settings: HCT-116, 48 h, read-out: GI
PC-3 = experiment: Cytotoxicity against human PC3 cells assessed as growth inhibition at 10 uM after 48 hrs by SRB assay; settings: PC-3, 48 h, read-out: GI
HCT-15 = experiment: Cytotoxicity against human HCT15 cells assessed as growth inhibition at 10 uM after 48 hrs by SRB assay; settings: HCT-15, 48 h, read-out: GI
SW-620 = experiment: Cytotoxicity against human SW620 cells assessed as growth inhibition at 10 uM after 48 hrs by SRB assay; settings: SW-620, 48 h, read-out: GI
Malme-3M = experiment: Cytotoxicity against human MALME-3M cells assessed as growth inhibition at 10 uM after 48 hrs by SRB assay; settings: read-out: GI
TK-10 = experiment: Cytotoxicity against human TK10 cells assessed as growth inhibition at 10 uM after 48 hrs by SRB assay; settings: TK-10, 48 h, read-out: GI
[1] = Cytotoxicity against human NCI-ADR-RES cells assessed as growth inhibition at 10 uM after 48 hrs by SRB assay; settings: read-out: GI
UACC-257 = experiment: Cytotoxicity against human UACC257 cells assessed as growth inhibition at 10 uM after 48 hrs by SRB assay; settings: UACC-257, 48 h, read-out: GI
SNB-19 = experiment: Cytotoxicity against human SNB19 cells assessed as growth inhibition at 10 uM after 48 hrs by SRB assay; settings: SNB-19, 48 h, read-out: GI
MDA-MB-435 = experiment: Cytotoxicity against human MDA-MB-435 cells assessed as growth inhibition at 10 uM after 48 hrs by SRB assay; settings: MDA-MB-435, 48 h, read-out: GI
T47D = experiment: Cytotoxicity against human T47D cells assessed as growth inhibition at 10 uM after 48 hrs by SRB assay; settings: read-out: GI
Hs-578T = experiment: Cytotoxicity against human Hs578T cells assessed as growth inhibition at 10 uM after 48 hrs by SRB assay; settings: read-out: GI
M14 = experiment: Cytotoxicity against human M14 cells assessed as growth inhibition at 10 uM after 48 hrs by SRB assay; settings: M14, 48 h, read-out: GI
SK-MEL-5 = experiment: Cytotoxicity against human SK-MEL-5 cells assessed as growth inhibition at 10 uM after 48 hrs by SRB assay; settings: SK-MEL-5, 48 h, read-out: GI
COLO 205 = experiment: Cytotoxicity against human COLO205 cells assessed as growth inhibition at 10 uM after 48 hrs by SRB assay; settings: COLO 205, 48 h, read-out: GI
NCI-H322M = experiment: Cytotoxicity against human NCI-H322M cells assessed as growth inhibition at 10 uM after 48 hrs by SRB assay; settings: read-out: GI
SNB-75 = experiment: Cytotoxicity against human SNB75 cells assessed as growth inhibition at 10 uM after 48 hrs by SRB assay; settings: SNB-75, 48 h, read-out: GI
SR = experiment: Cytotoxicity against human SR cells assessed as growth inhibition at 10 uM after 48 hrs by SRB assay; settings: read-out: GI
HOP-92 = experiment: Cytotoxicity against human HOP92 cells assessed as growth inhibition at 10 uM after 48 hrs by SRB assay; settings: HOP-92, 48 h, read-out: GI
KM12 = experiment: Cytotoxicity against human KM12 cells assessed as growth inhibition at 10 uM after 48 hrs by SRB assay; settings: KM12, 48 h, read-out: GI
NCI-H23 = experiment: Cytotoxicity against human NCI-H23 cells assessed as growth inhibition at 10 uM after 48 hrs by SRB assay; settings: NCI-H23, 48 h, read-out: GI
DU-145 = experiment: Cytotoxicity against human DU145 cells assessed as growth inhibition at 10 uM after 48 hrs by SRB assay; settings: DU-145, 48 h, read-out: GI
HOP-62 = experiment: Cytotoxicity against human HOP62 cells assessed as growth inhibition at 10 uM after 48 hrs by SRB assay; settings: HOP-62, 48 h, read-out: GI
SF-295 = experiment: Cytotoxicity against human SF295 cells assessed as growth inhibition at 10 uM after 48 hrs by SRB assay; settings: SF-295, 48 h, read-out: GI
NCI-H460 = experiment: Cytotoxicity against human NCI-H460 cells assessed as growth inhibition at 10 uM after 48 hrs by SRB assay; settings: NCI-H460, 48 h, read-out: GI
HL-60(TB) = experiment: Cytotoxicity against human HL-60(TB) cells assessed as growth inhibition at 10 uM after 48 hrs by SRB assay; settings: HL-60, 48 h, read-out: GI
LOX IMVI = experiment: Cytotoxicity against human LOXIMVI cells assessed as growth inhibition at 10 uM after 48 hrs by SRB assay; settings: read-out: GI
UACC-62 = experiment: Cytotoxicity against human UACC62 cells assessed as growth inhibition at 10 uM after 48 hrs by SRB assay; settings: UACC-62, 48 h, read-out: GI
U-251 = experiment: Cytotoxicity against human U251 cells assessed as growth inhibition at 10 uM after 48 hrs by SRB assay; settings: U-251, 48 h, read-out: GI
ACHN = experiment: Cytotoxicity against human ACHN cells assessed as growth inhibition at 10 uM after 48 hrs by SRB assay; settings: read-out: GI

Row | SMILES | inhibition of growth at 10 µM (A498) | inhibition of growth at 10 µM (SN12C) | inhibition of growth at 10 µM (SK-MEL-28) | inhibition of growth at 10 µM (SK-MEL-2) | inhibition of growth at 10 µM (NCI-H522) | inhibition of growth at 10 µM (RPMI-8226) | inhibition of growth at 10 µM (MDA-MB-231) | inhibition of growth at 10 µM (SF-268) | inhibition of growth at 10 µM (HCT-116) | inhibition of growth at 10 µM (PC-3) | inhibition of growth at 10 µM (HCT-15) | inhibition of growth at 10 µM (SW-620) | inhibition of growth at 10 µM (Malme-3M) | inhibition of growth at 10 µM (TK-10) | inhibition of growth at 10 µM [1] | inhibition of growth at 10 µM (UACC-257) | inhibition of growth at 10 µM (SNB-19) | inhibition of growth at 10 µM (MDA-MB-435) | inhibition of growth at 10 µM (T47D) | inhibition of growth at 10 µM (Hs-578T) | also measured
1 | O=C(Nc1ccc(OC2=NS(=O)(=O)c3ccccc32)cc1)Nc1ccccc1Cl | 5% | 17% | -8% | -1% | 10% | 7% | 63% | 14% | 1% | 9% | 8% | -5% | 2% | -17% | 13% | -17% | -9% | 5% | 8% | -1% | inhibition of growth at 10 µM (M14): 2%; inhibition of growth at 10 µM (SK-MEL-5): 9%; inhibition of growth at 10 µM (COLO 205): -17%; inhibition of growth at 10 µM (NCI-H322M): 2%; inhibition of growth at 10 µM (SNB-75): 18%; inhibition of growth at 10 µM (SR): 9%; inhibition of growth at 10 µM (HOP-92): -3%; inhibition of growth at 10 µM (KM12): 10%; inhibition of growth at 10 µM (NCI-H23): 8%; inhibition of growth at 10 µM (DU-145): 3%; inhibition of growth at 10 µM (HOP-62): -8%; inhibition of growth at 10 µM (SF-295): 8%; inhibition of growth at 10 µM (NCI-H460): -4%; inhibition of growth at 10 µM (HL-60(TB)): 25%; inhibition of growth at 10 µM (LOX IMVI): 15%; inhibition of growth at 10 µM (UACC-62): 16%; inhibition of growth at 10 µM (U-251): 0%; inhibition of growth at 10 µM (ACHN): 21%
2 | Cc1ccc(NC2=NS(=O)(=O)c3ccc(NC(=O)CCC(=O)O)cc32)cc1 | -14% | 6% | -2% | -6% | -8% | 7% | 6% | -10% | -6% | -2% | -13% | 1% | -1% | -16% | -3% | -25% | 1% | 0% | 5% | -2% | inhibition of growth at 10 µM (M14): -2%; inhibition of growth at 10 µM (SK-MEL-5): 5%; inhibition of growth at 10 µM (COLO 205): -11%; inhibition of growth at 10 µM (NCI-H322M): 2%; inhibition of growth at 10 µM (SNB-75): 21%; inhibition of growth at 10 µM (SR): -5%; inhibition of growth at 10 µM (HOP-92): 9%; inhibition of growth at 10 µM (KM12): -13%; inhibition of growth at 10 µM (NCI-H23): 1%; inhibition of growth at 10 µM (DU-145): -11%; inhibition of growth at 10 µM (HOP-62): -5%; inhibition of growth at 10 µM (SF-295): 1%; inhibition of growth at 10 µM (NCI-H460): -7%; inhibition of growth at 10 µM (HL-60(TB)): 9%; inhibition of growth at 10 µM (LOX IMVI): 1%; inhibition of growth at 10 µM (UACC-62): 6%; inhibition of growth at 10 µM (U-251): 0%; inhibition of growth at 10 µM (ACHN): -5%
3 | O=C(Nc1ccccc1)Nc1ccc(OC2=NS(=O)(=O)c3ccccc32)cc1 | 17% | 18% | -2% | -2% | 21% | 36% | 63% | 6% | 10% | 11% | 48% | 2% | 21% | -7% | 21% | -1% | -1% | 15% | 23% | 13% | inhibition of growth at 10 µM (M14): 42%; inhibition of growth at 10 µM (SK-MEL-5): 17%; inhibition of growth at 10 µM (COLO 205): -9%; inhibition of growth at 10 µM (NCI-H322M): 5%; inhibition of growth at 10 µM (SNB-75): 22%; inhibition of growth at 10 µM (SR): 36%; inhibition of growth at 10 µM (HOP-92): 2%; inhibition of growth at 10 µM (KM12): 58%; inhibition of growth at 10 µM (NCI-H23): 6%; inhibition of growth at 10 µM (DU-145): 18%; inhibition of growth at 10 µM (HOP-62): -11%; inhibition of growth at 10 µM (SF-295): 32%; inhibition of growth at 10 µM (NCI-H460): 21%; inhibition of growth at 10 µM (HL-60(TB)): 23%; inhibition of growth at 10 µM (LOX IMVI): 49%; inhibition of growth at 10 µM (UACC-62): 21%; inhibition of growth at 10 µM (U-251): 21%; inhibition of growth at 10 µM (ACHN): 12%
